Data published in patent publication EP4717691A1, “USE OF BMPR1B INHIBITOR IN INDUCED DEVELOPMENT, AND INDUCTION CULTURE MEDIUM” (Iregene Therapeutics Co., Ltd, priority 2023, dated 2024).

Assays:
[1] = target: BMPR1B kinase (Homo sapiens, UniProt O00238); assay: Kinase activity screening (330 kinases, HTRF or ADP-Glo); format: biochemical; conditions: compound 2.5 mM, 25 nL in DMSO added to 5 µL reaction; Figure 1A
Experimental: (§1) A total of 330 kinase candidates (15-50 nM, 2.5 µL) were mixed with compound II-1 (2.5 mM, 25 nL, prepared in DMSO) and incubated at 25 °C for 10 minutes. Then, a mixture of kinase peptide substrate (0.2 mg/mL; supplier: GenScript) and ATP (10-60 µM; supplier: Promega; product number: V915B) was added (total 2.5 µL, prepared in assay buffer), and the reaction was carried out at 25 °C for 60-120 minutes. Finally, the reaction products were quantified using HTRF1 or ADP-Glo2 methods. During the kinase activity assay, the consumption of each substrate was kept below 10%, and each kinase assay was performed in duplicate.

[2] = target: T1, BMPR2 (Homo sapiens, UniProt Q13873); assay: Kinase activity assay (HTRF or ADP-Glo); format: biochemical
T1 sequence (Q13873 27-1038): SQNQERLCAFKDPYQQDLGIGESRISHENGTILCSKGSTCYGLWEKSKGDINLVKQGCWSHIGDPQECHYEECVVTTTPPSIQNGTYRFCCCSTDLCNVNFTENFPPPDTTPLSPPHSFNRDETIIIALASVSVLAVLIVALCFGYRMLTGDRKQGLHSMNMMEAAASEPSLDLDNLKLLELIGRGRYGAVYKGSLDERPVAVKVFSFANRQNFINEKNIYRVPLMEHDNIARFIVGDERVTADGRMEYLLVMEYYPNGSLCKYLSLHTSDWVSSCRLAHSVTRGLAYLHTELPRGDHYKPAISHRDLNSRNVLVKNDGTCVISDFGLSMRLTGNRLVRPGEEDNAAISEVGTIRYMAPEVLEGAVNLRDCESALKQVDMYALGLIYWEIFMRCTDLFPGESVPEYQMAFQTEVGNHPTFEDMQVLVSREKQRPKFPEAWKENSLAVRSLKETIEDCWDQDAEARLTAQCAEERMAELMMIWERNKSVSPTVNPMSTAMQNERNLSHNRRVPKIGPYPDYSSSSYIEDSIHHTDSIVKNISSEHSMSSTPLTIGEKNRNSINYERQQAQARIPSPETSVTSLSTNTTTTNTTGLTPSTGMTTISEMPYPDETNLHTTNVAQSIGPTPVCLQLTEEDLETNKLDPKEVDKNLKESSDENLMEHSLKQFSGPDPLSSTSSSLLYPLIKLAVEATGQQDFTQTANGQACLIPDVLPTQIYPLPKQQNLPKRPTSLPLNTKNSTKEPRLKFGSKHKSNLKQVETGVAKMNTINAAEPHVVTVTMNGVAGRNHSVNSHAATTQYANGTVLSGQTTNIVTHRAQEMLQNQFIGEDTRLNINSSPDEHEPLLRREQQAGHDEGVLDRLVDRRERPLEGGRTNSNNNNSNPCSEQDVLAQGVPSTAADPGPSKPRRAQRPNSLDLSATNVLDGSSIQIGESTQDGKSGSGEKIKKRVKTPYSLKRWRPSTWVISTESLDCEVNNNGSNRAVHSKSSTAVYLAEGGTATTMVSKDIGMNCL
Experimental: as §1

[3] = target: T2, TGFBR1 (Homo sapiens, UniProt P36897); assay: Kinase activity assay (HTRF or ADP-Glo); format: biochemical
T2 sequence (P36897 34-503): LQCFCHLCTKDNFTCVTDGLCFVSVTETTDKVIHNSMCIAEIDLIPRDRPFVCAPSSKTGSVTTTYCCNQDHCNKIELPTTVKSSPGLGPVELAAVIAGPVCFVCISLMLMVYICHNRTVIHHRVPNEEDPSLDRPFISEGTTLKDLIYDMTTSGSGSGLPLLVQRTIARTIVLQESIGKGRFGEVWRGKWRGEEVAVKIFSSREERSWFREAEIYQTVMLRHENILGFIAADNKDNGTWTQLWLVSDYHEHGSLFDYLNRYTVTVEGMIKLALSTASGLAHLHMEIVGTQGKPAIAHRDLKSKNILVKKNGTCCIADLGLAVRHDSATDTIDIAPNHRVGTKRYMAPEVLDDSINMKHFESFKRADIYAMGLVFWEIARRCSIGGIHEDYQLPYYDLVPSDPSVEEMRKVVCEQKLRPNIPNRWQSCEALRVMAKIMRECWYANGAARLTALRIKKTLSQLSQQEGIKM
Experimental: as §1

[4] = test system: SMAD2/3; assay: Western blot of TGF signaling pathway in H1 cells; format: cell-based, human; conditions: 6 µL of 30 µM compound in 2 mL, within 24 hours of treatment, Figure 3
Experimental: (§2) The inhibitory effect of the pyrazolecarbonyl piperazinone compounds on the BMP signaling pathway was further validated by Western blot analysis. Commercial human pluripotent stem cell line H1 was seeded in a 6-well plate at 1.5 × 10^6 cells per well in 2 mL of culture medium. After one day of culture, the medium was replaced, and 6 µL of 30 µM pyrazolecarbonyl piperazinone compound II-1 was added. Cells were treated for 12, 24, and 36 hours, after which the cells were harvested and protein samples were prepared according to the instructions of a commercial kit (Beyotime Biotechnology; Cat. No. P0013). Western blot analysis was performed as described in the literature (H. Zhang et al., 2022; N. Zhang et al., 2021). […] Table 2. Antibody Information

[5] = test system: SMAD1/5/8; assay: Western blot of BMP signaling pathway in H1 cells; format: cell-based, human; conditions: 6 µL of 30 µM compound in 2 mL, within 24 hours of treatment, Figure 3
Experimental: as §2

[6] = test system: pluripotent stem cell H9; assay: Neural induction of H9 cells, marker gene mRNA by RNA-seq; format: cell-based, human; conditions: H9, increasing concentrations, day 7 and day 14, P < 0.05 t-test
Experimental: (§3) The induction medium comprises Dulbecco's Modified Eagle Medium (DMEM), Minimum Essential Medium Non-Essential Amino Acids (MEM NEAA, Cat. No. 11140076, Thermo Fisher), 4-Hydroxy-TEMPO (50 µM), D(+)-galactose (12.5 µg/mL), vitamin E (1 µg/mL), vitamin B12 (1.2 µM), vitamin C (64 mg/L), progesterone (6.3 ng/mL), 1,4-butanediamine (23 µg/mL), luteolin (60 µM), sodium chloride (0.5 g/L), […] (13.6 µg/L), insulin (22 µg/mL), recombinant human transferrin (100 ng/mL), and the BMPR1B inhibitor of the present invention (induction medium A uses BMPR1B inhibitor II-1; induction medium B uses BMPR1B inhibitor II-13).
(§4) Commercial human pluripotent stem cell lines H1, H9, and induced pluripotent stem cells (iPSCs) were used. The iPSCs were prepared according to the "reprogramming medium for the culture of reprogrammed iPSCs" using CD34+ cells (CN109628383A, Example 2). T25 culture flasks were coated with Matrigel (STEMCELL Technologies) and incubated at 37°C for at least one hour. Cells were seeded at 1 × 10^6 per T25 flask for expansion and passaging.
(§5) 6-well plates were coated with 50 µg/mL poly-L-lysine (SIGMA, Cat. No. P6407) and incubated at 37°C for at least 3 hours, followed by coating with 5 µg/mL laminin (SIGMA ALDRICH, Cat. No. 12020) and further incubation at 37°C for at least 3 hours. […]

[7] = test system: H1 cells; assay: Neural induction of H1 cells, marker gene mRNA by RNA-seq; format: cell-based, human; conditions: H1, increasing concentrations, day 7 and day 14; Figure 5
Experimental: as §3, §4, §5

[8] = test system: induced pluripotent stem cells (iPSCs); assay: Neural induction of iPSCs, marker gene mRNA by RNA-seq; format: cell-based, human; conditions: iPSCs vs untreated control, day 7 and day 14, dose-dependent; Figure 6
Experimental: as §3, §4
6-well plates were coated with 50 µg/mL poly-L-lysine (SIGMA, Cat. No. P6407) and incubated at 37°C for at least 3 hours, followed by coating with 5 µg/mL laminin (SIGMA ALDRICH, Cat. No. 12020) and further incubation at 37°C for at least 3 hours. When pluripotent stem cells reached 70% confluency, they were digested with EDTA at 37°C for 5 minutes, and digestion was terminated using DMEM. Cells were washed, centrifuged, and reseeded in T25 flasks at 2 × 10^5 cells per flask. Induction was carried out using the aforementioned induction media: H9 cells were induced with induction medium A, while H1 cells and iPSCs were induced with induction medium B. The medium was refreshed daily until day 14.
Samples were collected on day 7 and day 14 of induction. RNA was processed using the VAHTS Universal V8 RNA-seq Library Prep Kit for Illumina (Vazyme, NR605-01/02), and sequencing was performed on an Illumina platform. […]

[9] = at the same concentration as the screen
[10] = different concentrations, up to 12.5 µM, threefold serial dilution, Figure 1B, C

Sequence of BMPR1B kinase (O00238 14-502): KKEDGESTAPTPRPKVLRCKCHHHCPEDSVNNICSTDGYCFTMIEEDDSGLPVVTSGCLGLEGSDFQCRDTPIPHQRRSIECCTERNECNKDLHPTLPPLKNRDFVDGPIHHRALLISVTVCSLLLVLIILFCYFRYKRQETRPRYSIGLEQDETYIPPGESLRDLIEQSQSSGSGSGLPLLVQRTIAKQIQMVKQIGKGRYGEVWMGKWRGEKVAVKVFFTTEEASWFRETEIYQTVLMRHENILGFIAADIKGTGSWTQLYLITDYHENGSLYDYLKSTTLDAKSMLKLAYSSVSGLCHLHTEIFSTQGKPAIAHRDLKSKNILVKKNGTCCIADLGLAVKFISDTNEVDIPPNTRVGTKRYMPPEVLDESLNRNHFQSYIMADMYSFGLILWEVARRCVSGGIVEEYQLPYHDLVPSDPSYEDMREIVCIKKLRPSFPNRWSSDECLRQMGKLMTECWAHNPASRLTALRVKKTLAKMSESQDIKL

| Structure (SMILES) | inhibitory activity against BMPR1B kinase [1] | inhibition of kinase activity of BMPR2 [2, 9] | inhibition of BMPR2 kinase [2, 10] | inhibition of kinase activity of TGFBR1 [3, 9] | inhibition of TGFBR1 kinase [3, 10] | phosphorylation of SMAD2/3 [4] | phosphorylation levels of SMAD1/5/8 [5] | neural progenitor marker PAX6 expression [6] | pluripotency marker NANOG expression [6] | glial progenitor marker gene Sox9 expression [7] | neural marker gene MAP2 expression [7] | neural differentiation marker VIM expression [8] | neural progenitor marker Sox1 expression [8] | neural progenitor marker Sox5 expression [8] |
| --- | --- | --- | --- | --- | --- | --- | --- | --- | --- | --- | --- | --- | --- | --- |
| O=C1CN(C(=O)c2n[nH]c3c2CCC3)[C@H]2CCCC[C@@H]2N1 [II-1, (4aS,8aS)-4-(1,4,5,6-tetrahydrocyclopenta[c]pyrazole-3-carbonyl)octahydroquinoxalin-2(1H)-one] | significant inhibitory activity | did not inhibit | no inhibition | did not inhibit | no inhibition | did not inhibit | significantly suppressed | corresponding increase | dose-dependent decrease | – | – | – | – | – |
| O=C1CN(C(=O)c2n[nH]c3ccccc23)[C@H]2CCCC[C@@H]2N1 [II-13, (4aS,8aS)-4-(1H-indazole-3-carbonyl)octahydroquinoxalin-2(1H)-one] | – | – | – | – | – | – | – | – | – | dose-dependent response | dose-dependent response | significantly increased expression | significantly increased expression | significantly increased expression |
